This note sets out measurements from publication PMC6479915, “Novel Benzene-Based Carbamates for AChE/BChE Inhibition: Synthesis and Ligand/Structure-Oriented SAR Study” (International Journal of Molecular Sciences, 2019).

The target in one assay is T1, BChE from equine serum (Equus caballus, UniProt P81908).
T1 construct: BChE (from equine serum); purchased Sigma, St. Louis, MO, USA; host or cells: equine serum
In words: In vitro BChE inhibition, modified Ellman's method. The assay is classed as biochemical. To be noted: for SI (index selectivity) = IC50 (AChE)/IC50 (BChE): higher value = higher selectivity to BChE.

The target in a further assay is T2, AChE from electric eel (Electrophorus electricus, UniProt O42275).
T2 construct: purchased Sigma, St. Louis, MO, USA
T2 sequence (O42275 24-633): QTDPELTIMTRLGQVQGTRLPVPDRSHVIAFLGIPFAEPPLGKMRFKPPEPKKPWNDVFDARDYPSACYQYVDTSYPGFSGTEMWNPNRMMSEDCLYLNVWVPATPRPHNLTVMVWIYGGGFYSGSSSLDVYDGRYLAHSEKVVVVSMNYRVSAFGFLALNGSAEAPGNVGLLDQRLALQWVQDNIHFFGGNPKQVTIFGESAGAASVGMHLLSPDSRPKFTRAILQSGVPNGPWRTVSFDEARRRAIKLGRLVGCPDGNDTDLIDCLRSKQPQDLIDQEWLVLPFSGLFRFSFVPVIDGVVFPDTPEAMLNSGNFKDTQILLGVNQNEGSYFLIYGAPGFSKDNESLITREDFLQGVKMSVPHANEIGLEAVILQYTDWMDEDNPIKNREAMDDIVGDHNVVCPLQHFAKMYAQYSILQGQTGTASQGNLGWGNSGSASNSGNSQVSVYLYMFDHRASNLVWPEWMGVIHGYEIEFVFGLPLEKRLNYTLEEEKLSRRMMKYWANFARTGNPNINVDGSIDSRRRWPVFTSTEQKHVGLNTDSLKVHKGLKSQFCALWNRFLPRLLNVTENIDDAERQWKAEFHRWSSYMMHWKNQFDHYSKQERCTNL
In words: biochemical. Particulars: mean ± SD, n = three experiments; 25 °C, PBS pH 7.4, substrate ATCh 40 μM.

T1 sequence (P81908 whole entry): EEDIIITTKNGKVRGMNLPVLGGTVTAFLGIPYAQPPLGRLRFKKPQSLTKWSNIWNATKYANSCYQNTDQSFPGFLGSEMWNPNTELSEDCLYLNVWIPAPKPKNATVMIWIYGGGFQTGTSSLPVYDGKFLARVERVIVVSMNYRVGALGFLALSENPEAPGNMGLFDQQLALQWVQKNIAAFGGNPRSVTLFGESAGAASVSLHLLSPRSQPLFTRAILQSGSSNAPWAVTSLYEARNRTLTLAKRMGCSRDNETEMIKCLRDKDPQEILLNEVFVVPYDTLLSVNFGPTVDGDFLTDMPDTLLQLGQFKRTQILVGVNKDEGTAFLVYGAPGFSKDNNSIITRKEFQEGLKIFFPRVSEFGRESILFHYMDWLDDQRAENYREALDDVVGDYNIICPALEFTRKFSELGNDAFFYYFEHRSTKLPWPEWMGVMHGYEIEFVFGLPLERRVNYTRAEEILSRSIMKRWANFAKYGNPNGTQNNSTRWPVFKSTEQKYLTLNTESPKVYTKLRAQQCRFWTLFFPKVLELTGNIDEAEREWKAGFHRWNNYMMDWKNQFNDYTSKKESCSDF

On to `CC(C(=O)c1ccc2c(c1)OCO2)N(C)C(=O)OCc1ccccc1` (stereo not drawn) [Compound 34, Benzyl (1-(benzo[d][1,3]dioxol-5-yl)-1-oxopropan-2-yl)(methyl)carbamate], for which the IC50 on BChE from equine serum amounted to 51.9 ± 1.18 µM; against AChE from electric eel, 75.6 ± 1.25 µM. Further, the “SI (index selectivity) = IC50 (AChE)/IC50 (BChE)” value (shortened to “SI (index selectivity) = IC50”) on BChE from equine serum is 1.46.

On to `COC(=O)N(C)C(C)C(=O)c1cccc2ccccc12` (stereo not drawn) [Compound 35], for which the results for the IC50 against BChE from equine serum and on AChE from electric eel were 150 ± 7.13 µM and 127 ± 1.74 µM, respectively. Besides, at BChE from equine serum, the “SI (index selectivity) = IC50” value is 0.84.

On to `CC(C(=O)c1cccc2ccccc12)N(C)C(=O)Oc1ccccc1` (stereo not drawn) [Compound 36], for which, at BChE from equine serum, the IC50 is 12.7 ± 0.19 µM and the “SI (index selectivity) = IC50” value amounted to 7.83. Further, half-maximal inhibition on AChE from electric eel (IC50) was put at 99.6 ± 5.88 µM.

For `CC(C(=O)c1ccc(Cl)c2ccccc12)N(C)C(=O)Oc1ccccc1` (stereo not drawn) [Compound 37, Phenyl (1-(4-chloronaphthalen-1-yl)-1-oxopropan-2-yl)(methyl)carbamate], the IC50 at BChE from equine serum came to 13.5 ± 0.47 µM; at AChE from electric eel, 30.6 ± 1.57 µM. In addition, the “SI (index selectivity) = IC50” value at BChE from equine serum is 2.26.

Turning to `CC(C(=O)c1ccc(Br)c2ccccc12)N(C)C(=O)Oc1ccccc1` (stereo not drawn) [Compound 38, Phenyl (1-(4-bromonaphthalen-1-yl)-1-oxopropan-2-yl)(methyl)carbamate], at BChE from equine serum, the IC50 is 13 ± 0.28 µM and the “SI (index selectivity) = IC50” value is 4.76. This compound yielded an IC50 against AChE from electric eel of 61.7 ± 1.42 µM.

`CC(C(=O)c1cccc2ccccc12)N(C)C(=O)OCc1ccccc1` (stereo not drawn) [Compound 39, Benzyl methyl(1-(naphthalen-1-yl)-1-oxopropan-2-yl)carbamate]: at BChE from equine serum, the IC50 was 18.94 ± 0.18 µM and the “SI (index selectivity) = IC50” value came out at 5.55. The same compound yielded an IC50 against AChE from electric eel of 105.2 ± 0.99 µM.

Regarding `CC(C(=O)c1ccc(Cl)c2ccccc12)N(C)C(=O)OCc1ccccc1` (stereo not drawn) [Compound 40, Benzyl (1-(4-chloronaphthalen-1-yl)-1-oxopropan-2-yl)(methyl)carbamate], the IC50 was found to be 42.75 ± 0.31 µM against BChE from equine serum and 103.3 ± 0.41 µM on AChE from electric eel. Also, at BChE from equine serum, the “SI (index selectivity) = IC50” value is reported as 2.42.

For `CC(C(=O)c1ccc(Br)c2ccccc12)N(C)C(=O)OCc1ccccc1` (stereo not drawn) [Compound 41, Benzyl (1-(4-bromonaphthalen-1-yl)-1-oxopropan-2-yl)(methyl)carbamate], the IC50 against BChE from equine serum worked out at 236 ± 16.3 µM; against AChE from electric eel, 128.3 ± 0.88 µM. In addition, on BChE from equine serum, the “SI (index selectivity) = IC50” value is on record as 0.54.
